This note sets out measurements from patent US20210309657A1, “TRICYCLIC COMPOUNDS FOR THE TREATMENT AND PROPHYLAXIS OF BACTERIAL INFECTION” (Hoffmann-La Roche Inc., priority 2018, published 2021).

Converted amounts (≈) assume the structure as drawn. Like-named read-outs stand apart in the source and are kept apart here. Where only a bound is given, the exact number is not on record here.

Data set [1] concerns S. aureus (ATCC29213). The data set can be described thus: 50% growth inhibitory concentration (IC50) determination assay, S. aureus. The format is cell-based. The note with it: Staphylococcus aureus, growth inhibition, Iso-Sensitest broth, OD 600 nm over 16h, <0.098 = the detection limit. How it is done: (§1) The in vitro antimicrobial activity of the compounds against S. aureus (ATCC29213), K. pneumoniae (ATCC10031), and A. baumannii (ATCC17978), was determined according to the following procedure: The assay used a 10-points Iso-Sensitest broth medium to measure quantitatively the in vitro activity of the compounds against S. aureus ATCC29213, K. pneumoniae ATCC 10031, and A. baumannii ATCC17978. Stock compounds in DMSO were serially two-fold diluted (range from 50 to 0.097 μM final concentration) in 384 wells microtiter plates and inoculated with 49 μL the bacterial suspension in Iso-Sensitest broth medium to have a final cell concentration of ˜5×10^5 CFU/mL in a final volume/well of 50 μL/well. Microtiter plates were incubated at 35±2° C. Bacterial cell growth was determined with the measurement of optical density at λ=600 nm each 20 minutes over a time course of 16h. Growth inhibition was calculated during the logarithmic growth of the bacterial cells with determination of the concentration inhibiting 50% (IC50) of the growth. Compounds of the present invention were tested for their concentration inhibiting 50% (IC50). The data of IC50 over S. aureus (ATCC29213), K. pneumoniae (ATCC10031), and A. baumannii (ATCC17978) are illustrated in Table 4.

Data set [2] relates to K. pneumoniae (ATCC10031). Put plainly: 50% growth inhibitory concentration (IC50) determination assay, K. pneumoniae. The settings on record: Klebsiella pneumoniae, growth inhibition, Iso-Sensitest broth, OD 600 nm over 16h, <0.098 = the detection limit. The format is cell-based. As for the experimental part:
as §1

Data set [3] deals with A. baumannii (ATCC17978). The data set can be described thus: 50% growth inhibitory concentration (IC50) determination assay, A. baumannii. The format is cell-based. The note with it: Acinetobacter baumannii, growth inhibition, Iso-Sensitest broth, OD 600 nm over 16h, <0.098 = the detection limit. As for the experimental part:
as §1

The nature of data set [4]: Lyophilisation solubility assay (LYSA). It is filed as physicochemical. The note with it: thermodynamic from solid. How it is done: The solubility of compounds of present invention was assessed by LYSA assay. Samples were prepared in duplicate from 10 mM DMSO stock solutions ([…]) diluted in 30 μL pure DMSO. After evaporation of DMSO with a centrifugal vacuum evaporator, the residue was dissolved in 0.05 M phosphate buffer (150 μL, pH 6.5), which was stirred for one hour and shook for two hours. After one night, the solution was filtered using a microtiter filter plate. Then the filtrate and its 1/10 dilution were analyzed by HPLC-UV. In addition, a four-point calibration curve was prepared from the 10 mM stock solutions and used for the solubility determination of the compounds.

Where [5] appears, read: aqueous buffer, 0.05 M phosphate buffer, pH 6.5, HPLC-UV, <1.0 = the detection limit, read-out: Lysa.

In general, IC50 refers to the concentration that inhibits the measured activity by half. Consider `CNc1cc(F)c(F)c2c1[nH]c1ncc(-c3cnc4ccnn4c3)c(N3CC[C@H]4CN(C)C[C@H]43)c12` (relative stereo) [Example 1.50, 4-[Cis-5-methyl-2,3,3a,4,6,6a-hexahydropyrrolo[2,3-c]pyrrol-1-yl]-5,6-difluoro-N-methyl-3-pyrazolo[1,5-a]pyrimidin-6-yl-9H-pyrido[2,3-b]indol-8-amine], for which the IC50 in data set [1] was 369 nM; in data set [2], under 98 nM; in data set [3] it was under 98 nM.

In the case of `CCNc1cc(F)cc2c1[nH]c1ncc(-c3cncc(C#N)c3)c(N3CCC4(C[C@H]4N)C3)c12` (stereo in doubt) [Example 1.11, 5-[8-(Ethylamino)-6-fluoro-4-[cis-2-amino-5-azaspiro[2.4]heptan-5-yl]-9H-pyrido[2,3-b]indol-3-yl]pyridine-3-carbonitrile], the concentration for half-maximal inhibition (IC50) in data set [1] was 863 nM; in data set [2], under 98 nM; in data set [3], under 98 nM.

In the case of `CNc1cc(F)c(F)c2c1[nH]c1ncc(-c3cncc(C#N)c3)c(N3CCC4(C[C@@H]4N)C3)c12` (stereo in doubt) [Example 1.29, 5-[4-[Trans-2-amino-5-azaspiro[2.4]heptan-5-yl]-5,6-difluoro-8-(methylamino)-9H-pyrido[2,3-b]indol-3-yl]pyridine-3-carbonitrile], the IC50 in data set [1] came out at 1240 nM; in data set [3], 100 nM. Besides, in data set [4] (setting [5]), the solubility thermodynamic stood at 16 µg/mL (≈ 35.9 µM).

For `CNc1cc(F)c(F)c2c1[nH]c1ncc(-c3cncc(C#N)c3)c(N3CCC4(C[C@H]4N)C3)c12` (stereo in doubt) [Example 1.30, 5-[4-[Cis-2-amino-5-azaspiro[2.4]heptan-5-yl]-5,6-difluoro-8-(methylamino)-9H-pyrido[2,3-b]indol-3-yl]pyridine-3-carbonitrile], the concentration for half-maximal inhibition (IC50) is 1010 nM in data set [1] and under 98 nM in data set [3].

Regarding `CNc1cc(F)cc2c1[nH]c1ncc(-c3cncc(C#N)c3)c(N3CC[C@@H](N)C3)c12` [Example 1.01, 5-[4-[(3R)-3-Aminopyrrolidin-1-yl]-6-fluoro-8-(methylamino)-9H-pyrido[2,3-b]indol-3-yl]pyridine-3-carbonitrile], the solubility thermodynamic in data set [4] (setting [5]) amounted to 59 µg/mL (≈ 147 µM).

As for `CCNc1cc(Cl)cc2c1[nH]c1ncc(-c3cncc(C#N)c3)c(N3CCC(N)C3)c12` (stereo not drawn) [Example 1.03, 5-[4-(3-Aminopyrrolidin-1-yl)-6-chloro-8-(ethylamino)-9H-pyrido[2,3-b]indol-3-yl]pyridine-3-carbonitrile], the solubility thermodynamic in data set [4] (setting [5]) was 32.7 µg/mL (≈ 75.7 µM).

Turning to `CCNc1cc(F)cc2c1[nH]c1ncc(-c3cncc(C#N)c3)c(N3CCCC3CN)c12` (stereo not drawn) [Example 1.06, 5-[4-[2-(Aminomethyl)pyrrolidin-1-yl]-8-(ethylamino)-6-fluoro-9H-pyrido[2,3-b]indol-3-yl]pyridine-3-carbonitrile], the solubility thermodynamic in data set [4] (setting [5]) was over 625 µg/mL.

For `CCNc1cc(F)cc2c1[nH]c1ncc(-c3cncc(C#N)c3)c(N3CCC(F)(CN)C3)c12` (stereo not drawn) [Example 1.10, 5-[4-[3-(Aminomethyl)-3-fluoro-pyrrolidin-1-yl]-8-(ethylamino)-6-fluoro-9H-pyrido[2,3-b]indol-3-yl]pyridine-3-carbonitrile], the results for the concentration for half-maximal inhibition (IC50) in data set [1], in data set [2] and in data set [3] were 312 nM, under 98 nM and under 98 nM, respectively.

On to `CNc1cc(F)c(F)c2c1[nH]c1ncc(-c3cncc(C#N)c3)c(N3CCCC(CN)C3)c12` (stereo not drawn) [Example 1.21, 5-[4-[3-(Aminomethyl)-1-piperidyl]-5,6-difluoro-8-(methylamino)-9H-pyrido[2,3-b]indol-3-yl]pyridine-3-carbonitrile], for which, in data set [4] (setting [5]), the solubility thermodynamic was 44 µg/mL (≈ 98.3 µM).

Turning to `CNc1cc(F)cc2c1[nH]c1ncc(-c3cncc(C#N)c3)c(N3CCC(F)(CN)C3)c12` (stereo not drawn) [Example 1.23, 5-[4-[3-(Aminomethyl)-3-fluoro-pyrrolidin-1-yl]-6-fluoro-8-(methylamino)-9H-pyrido[2,3-b]indol-3-yl]pyridine-3-carbonitrile], the solubility thermodynamic in data set [4] (setting [5]) worked out at 30 µg/mL (≈ 69.2 µM).

For the compound `CNc1cc(F)c(F)c2c1[nH]c1ncc(-c3cnc(OC)nc3)c(N3CCC[C@@H](CN)C3)c12` [Example 1.25, 4-[(3S)-3-(Aminomethyl)-1-piperidyl]-5,6-difluoro-3-(2-methoxypyrimidin-5-yl)-N-methyl-9H-pyrido[2,3-b]indol-8-amine], the solubility thermodynamic in data set [4] (setting [5]) is 194 µg/mL (≈ 428 µM).

`CNc1cc(F)c(F)c2c1[nH]c1ncc(-c3cnc(OC)nc3)c(N3CCOC(CN)C3)c12` (stereo not drawn) [Example 1.33, 4-[2-(Aminomethyl)morpholin-4-yl]-5,6-difluoro-3-(2-methoxypyrimidin-5-yl)-N-methyl-9H-pyrido[2,3-b]indol-8-amine]: the solubility thermodynamic in data set [4] (setting [5]) is 475 µg/mL (≈ 1040 µM).

`CNc1cc(F)c(F)c2c1[nH]c1ncc(-c3cnc(OC)nc3)c(N3CCC(C)(CN)C3)c12` (stereo not drawn) [Example 1.36, 4-[3-(Aminomethyl)-3-methyl-pyrrolidin-1-yl]-5,6-difluoro-3-(2-methoxypyrimidin-5-yl)-N-methyl-9H-pyrido[2,3-b]indol-8-amine]: in data set [4] (setting [5]), the solubility thermodynamic came out at 140 µg/mL (≈ 309 µM).

Turning to `CNc1cc(F)c(F)c2c1[nH]c1ncc(-c3cnc(OC)nc3)c(N3CCCC3CN)c12` (stereo not drawn) [Example 1.37, 4-[2-(Aminomethyl)pyrrolidin-1-yl]-5,6-difluoro-3-(2-methoxypyrimidin-5-yl)-N-methyl-9H-pyrido[2,3-b]indol-8-amine], the solubility thermodynamic in data set [4] (setting [5]) came out at 545 µg/mL (≈ 1240 µM).

With `CNc1cc(F)c(F)c2c1[nH]c1ncc(-c3cncc(C#N)c3)c(N3CCCC3CN)c12` (stereo not drawn) [Example 1.38, 5-[4-[2-(Aminomethyl)pyrrolidin-1-yl]-5,6-difluoro-8-(methylamino)-9H-pyrido[2,3-b]indol-3-yl]pyridine-3-carbonitrile], in data set [4] (setting [5]), the solubility thermodynamic is over 610 µg/mL.

With `CNc1cc(F)c(F)c2c1[nH]c1ncc(-c3cncc(C#N)c3)c(N3CCC[C@@H](CN)C3)c12` [Example 1.40, 5-[4-[(3S)-3-(Aminomethyl)-1-piperidyl]-5,6-difluoro-8-(methylamino)-9H-pyrido[2,3-b]indol-3-yl]pyridine-3-carbonitrile], the solubility thermodynamic in data set [4] (setting [5]) was found to be 49 µg/mL (≈ 109 µM).

Turning to `CNc1cc(F)c(F)c2c1[nH]c1ncc(-c3cncc(C#N)c3)c(N3CC4CC(C3)N4)c12` [Example 1.44, 5-(4-(3,6-Diazabicyclo[3.1.1]heptan-3-yl)-5,6-difluoro-8-(methylamino)-9H-pyrido[2,3-b]indol-3-yl)nicotinonitrile], the solubility thermodynamic in data set [4] (pH 6.5, aqueous buffer) is 270 µg/mL (≈ 626 µM).

With `CCNc1cc(F)c(C)c2c1[nH]c1ncc(-c3cncc(C#N)c3)c(N3CCC(CN)C3)c12` (stereo not drawn) [Example 1.45, 5-(4-(3-(Aminomethyl)pyrrolidin-1-yl)-8-(ethylamino)-6-fluoro-5-methyl-9H-pyrido[2,3-b]indol-3-yl)nicotinonitrile], the concentration for half-maximal inhibition (IC50) worked out at 992 nM in data set [1], 172 nM in data set [2] and 528 nM in data set [3].

In the case of `CNc1cc(F)c(F)c2c1[nH]c1ncc(-c3cncc(C#N)c3)c(N3C4CNCC3C4)c12` [Example 1.58, 5-(4-(3,6-Diazabicyclo[3.1.1]heptan-6-yl)-5,6-difluoro-8-(methylamino)-9H-pyrido[2,3-b]indol-3-yl)nicotinonitrile], the results for the half-maximal inhibitory concentration (IC50) in data set [1] and in data set [3] were 231 nM and 182 nM, respectively. In addition, the solubility thermodynamic in data set [4] (pH 6.5, aqueous buffer) was found to be 320 µg/mL (≈ 742 µM).

The compound `CNc1cc(F)cc2c1[nH]c1ncc(-c3cncc(C#N)c3)c(N3C4CNCC3C4)c12` [Example 1.60, 5-(4-(3,6-Diazabicyclo[3.1.1]heptan-6-yl)-6-fluoro-8-(methylamino)-9H-pyrido[2,3-b]indol-3-yl)nicotinonitrile] gave an IC50 in data set [1] of 842 nM. In addition, the solubility thermodynamic in data set [4] (pH 6.5, aqueous buffer) stood at 53 µg/mL (≈ 128 µM).

For the compound `CCNc1cc(F)cc2c1[nH]c1ncc(-c3cnc(C4(C(=O)O)CC4)nc3)c(N(C)C)c12` [Example 2.01, 1-[5-[4-(Dimethylamino)-8-(ethylamino)-6-fluoro-9H-pyrido[2,3-b]indol-3-yl]pyrimidin-2-yl]cyclopropanecarboxylic acid], in data set [4] (setting [5]), the solubility thermodynamic worked out at 129 µg/mL (≈ 297 µM).

`CNc1cc(F)cc2c1[nH]c1ncc(-c3cnc(OC)nc3)c(N3CC(CN)C(F)(F)C3)c12` (stereo not drawn) [Example 3.02, 4-[4-(aminomethyl)-3,3-difluoro-pyrrolidin-1-yl]-6-fluoro-3-(2-methoxypyrimidin-5-yl)-N-methyl-9H-pyrido[2,3-b]indol-8-amine]: the solubility thermodynamic in data set [4] (setting [5]) is 196 µg/mL (≈ 428 µM).
